Results taken from ChEMBL document CHEMBL5649169 (ChemMedChem, 2018).

Key:
[1] = biological target: Cytochrome c1, heme protein, mitochondrial (Homo sapiens) (UniProt P08574); also: assay method not described here
[2] = biological target: Alanine--tRNA ligase, cytoplasmic (Homo sapiens) (UniProt P49588); also: assay method not described here
[3] = biological target: Mitogen-activated protein kinase kinase kinase 4 (Homo sapiens) (UniProt Q9Y6R4); also: assay method not described here
[4] = biological target: Isocitrate dehydrogenase [NAD] subunit alpha, mitochondrial (Homo sapiens) (UniProt P50213); also: assay method not described here
Homo sapiens [5] = species on record: Homo sapiens; also: assay method not described here
[6] = biological target: Tubulin beta-5 chain (Homo sapiens) (UniProt P07437); also: assay method not described here
[7] = biological target: Glutathione S-transferase omega-1 (Homo sapiens) (UniProt P78417); also: assay method not described here
[8] = biological target: Casein kinase II subunit alpha' (Homo sapiens) (UniProt P19784); also: assay method not described here
[9] = biological target: Alpha-actinin-4 (Homo sapiens) (UniProt O43707); also: assay method not described here
[10] = biological target: Exportin-7 (Homo sapiens) (UniProt Q9UIA9); also: assay method not described here
[11] = biological target: Structural maintenance of chromosomes protein 2 (Homo sapiens) (UniProt O95347); also: assay method not described here
[12] = biological target: T-complex protein 1 subunit eta (Homo sapiens) (UniProt Q99832); also: assay method not described here
[13] = biological target: Very-long-chain 3-oxoacyl-CoA reductase (Homo sapiens) (UniProt Q53GQ0); also: assay method not described here
[14] = biological target: ADP-sugar pyrophosphatase (Homo sapiens) (UniProt Q9UKK9); also: assay method not described here
Cyclin-T2 (Homo sapiens) = Cyclin-T2 (Homo sapiens) (UniProt O60583)
[15] = biological target: RNA-binding protein 3 (Homo sapiens) (UniProt P98179); also: assay method not described here
[16] = biological target: Multifunctional protein CAD (Homo sapiens) (UniProt P27708); also: assay method not described here
Multifunctional protein CAD (Homo sapiens), sequence (P27708 whole entry): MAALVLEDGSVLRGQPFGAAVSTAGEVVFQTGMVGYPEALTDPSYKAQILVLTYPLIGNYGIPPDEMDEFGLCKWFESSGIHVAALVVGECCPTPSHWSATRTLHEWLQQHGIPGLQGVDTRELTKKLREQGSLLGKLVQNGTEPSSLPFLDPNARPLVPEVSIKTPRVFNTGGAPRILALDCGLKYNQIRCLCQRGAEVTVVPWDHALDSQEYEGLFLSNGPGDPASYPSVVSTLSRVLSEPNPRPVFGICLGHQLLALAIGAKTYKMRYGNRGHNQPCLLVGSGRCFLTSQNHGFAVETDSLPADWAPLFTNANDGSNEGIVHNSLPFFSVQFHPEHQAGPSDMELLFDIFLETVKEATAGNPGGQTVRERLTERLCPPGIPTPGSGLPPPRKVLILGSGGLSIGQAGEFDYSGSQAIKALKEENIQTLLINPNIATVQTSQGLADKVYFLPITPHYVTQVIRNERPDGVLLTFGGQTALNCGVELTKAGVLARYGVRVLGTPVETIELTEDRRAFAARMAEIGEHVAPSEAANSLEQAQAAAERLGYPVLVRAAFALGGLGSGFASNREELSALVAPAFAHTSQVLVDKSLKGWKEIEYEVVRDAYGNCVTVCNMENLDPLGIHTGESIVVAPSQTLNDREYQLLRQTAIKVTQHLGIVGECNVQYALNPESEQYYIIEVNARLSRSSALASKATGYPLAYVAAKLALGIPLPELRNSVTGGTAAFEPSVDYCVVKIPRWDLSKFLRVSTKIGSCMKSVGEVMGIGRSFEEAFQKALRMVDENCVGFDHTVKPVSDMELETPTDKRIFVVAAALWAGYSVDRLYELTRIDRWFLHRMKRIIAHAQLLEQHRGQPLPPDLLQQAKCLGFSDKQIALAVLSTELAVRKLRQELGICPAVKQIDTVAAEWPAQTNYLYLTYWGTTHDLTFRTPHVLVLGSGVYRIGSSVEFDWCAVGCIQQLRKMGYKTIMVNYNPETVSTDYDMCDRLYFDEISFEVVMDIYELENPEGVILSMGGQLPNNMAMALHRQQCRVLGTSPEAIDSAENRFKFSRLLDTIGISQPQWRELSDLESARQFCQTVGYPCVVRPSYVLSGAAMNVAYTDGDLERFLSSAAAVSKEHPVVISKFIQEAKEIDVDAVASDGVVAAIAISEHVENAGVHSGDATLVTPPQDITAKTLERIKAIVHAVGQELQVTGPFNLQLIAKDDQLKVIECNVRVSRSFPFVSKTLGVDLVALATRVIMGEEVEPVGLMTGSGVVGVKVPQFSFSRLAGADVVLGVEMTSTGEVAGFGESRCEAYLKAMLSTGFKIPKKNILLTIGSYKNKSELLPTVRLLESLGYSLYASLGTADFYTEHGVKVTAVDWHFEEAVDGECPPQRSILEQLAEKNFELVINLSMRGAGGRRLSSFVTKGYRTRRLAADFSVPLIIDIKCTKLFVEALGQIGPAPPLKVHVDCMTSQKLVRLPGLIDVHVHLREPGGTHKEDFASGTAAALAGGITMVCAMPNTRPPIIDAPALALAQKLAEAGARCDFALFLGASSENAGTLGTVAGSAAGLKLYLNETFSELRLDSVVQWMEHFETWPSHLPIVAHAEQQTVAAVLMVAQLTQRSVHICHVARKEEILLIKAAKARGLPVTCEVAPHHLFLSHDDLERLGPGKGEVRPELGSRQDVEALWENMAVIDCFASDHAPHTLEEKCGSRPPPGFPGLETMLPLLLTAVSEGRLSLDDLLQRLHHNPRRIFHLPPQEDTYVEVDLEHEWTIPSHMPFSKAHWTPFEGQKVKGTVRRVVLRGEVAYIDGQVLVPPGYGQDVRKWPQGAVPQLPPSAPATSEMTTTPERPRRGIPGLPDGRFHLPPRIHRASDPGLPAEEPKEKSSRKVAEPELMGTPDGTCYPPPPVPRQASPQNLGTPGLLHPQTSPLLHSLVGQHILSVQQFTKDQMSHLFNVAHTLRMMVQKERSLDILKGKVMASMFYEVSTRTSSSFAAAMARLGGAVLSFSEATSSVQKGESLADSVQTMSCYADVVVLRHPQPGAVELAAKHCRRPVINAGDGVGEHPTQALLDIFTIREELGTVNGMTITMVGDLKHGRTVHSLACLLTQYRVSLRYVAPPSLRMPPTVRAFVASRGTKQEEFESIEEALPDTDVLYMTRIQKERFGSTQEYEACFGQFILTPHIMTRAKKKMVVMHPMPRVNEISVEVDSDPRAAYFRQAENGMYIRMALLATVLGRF

[17] = biological target: Replication factor C subunit 3 (Homo sapiens) (UniProt P40938); also: assay method not described here
[18] = biological target: 26S proteasome regulatory subunit 6B (Homo sapiens) (UniProt P43686); also: assay method not described here
[19] = biological target: Exportin-T (Homo sapiens) (UniProt O43592); also: assay method not described here
[20] = biological target: Ceramide synthase 2 (Homo sapiens) (UniProt Q96G23); also: assay method not described here
[21] = biological target: Host cell factor 1 (Homo sapiens) (UniProt P51610); also: assay method not described here
[22] = biological target: Stress-70 protein, mitochondrial (Homo sapiens) (UniProt P38646); also: assay method not described here
Stress-70 protein, mitochondrial (Homo sapiens), sequence (P38646 whole entry): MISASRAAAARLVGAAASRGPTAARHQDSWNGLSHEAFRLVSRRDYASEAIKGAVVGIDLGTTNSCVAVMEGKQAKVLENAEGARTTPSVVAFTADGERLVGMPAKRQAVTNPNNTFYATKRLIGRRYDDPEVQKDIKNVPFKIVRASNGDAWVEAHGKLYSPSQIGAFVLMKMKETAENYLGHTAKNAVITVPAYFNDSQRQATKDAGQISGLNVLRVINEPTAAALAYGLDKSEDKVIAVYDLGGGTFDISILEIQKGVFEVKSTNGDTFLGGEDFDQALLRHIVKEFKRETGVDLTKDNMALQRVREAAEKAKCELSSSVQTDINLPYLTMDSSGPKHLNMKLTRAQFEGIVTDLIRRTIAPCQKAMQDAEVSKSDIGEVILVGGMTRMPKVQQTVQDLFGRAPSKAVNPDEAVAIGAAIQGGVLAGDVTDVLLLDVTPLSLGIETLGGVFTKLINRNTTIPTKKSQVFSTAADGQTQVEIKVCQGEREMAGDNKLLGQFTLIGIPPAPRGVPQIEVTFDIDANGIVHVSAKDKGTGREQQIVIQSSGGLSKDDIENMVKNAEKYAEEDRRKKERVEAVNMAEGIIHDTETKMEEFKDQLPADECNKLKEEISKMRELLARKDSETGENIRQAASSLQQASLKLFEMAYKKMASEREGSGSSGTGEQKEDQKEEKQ

[23] = biological target: Propionyl-CoA carboxylase alpha chain, mitochondrial (Homo sapiens) (UniProt P05165); also: assay method not described here
[24] = biological target: Protein salvador homolog 1 (Homo sapiens) (UniProt Q9H4B6); also: assay method not described here
[25] = biological target: Eukaryotic translation initiation factor 3 subunit G (Homo sapiens) (UniProt O75821); also: assay method not described here
[26] = biological target: Interleukin-1 receptor-associated kinase 1 (Homo sapiens) (UniProt P51617); also: assay method not described here
Interleukin-1 receptor-associated kinase 1 (Homo sapiens), sequence (P51617 whole entry, looked up, the tested form may be a part): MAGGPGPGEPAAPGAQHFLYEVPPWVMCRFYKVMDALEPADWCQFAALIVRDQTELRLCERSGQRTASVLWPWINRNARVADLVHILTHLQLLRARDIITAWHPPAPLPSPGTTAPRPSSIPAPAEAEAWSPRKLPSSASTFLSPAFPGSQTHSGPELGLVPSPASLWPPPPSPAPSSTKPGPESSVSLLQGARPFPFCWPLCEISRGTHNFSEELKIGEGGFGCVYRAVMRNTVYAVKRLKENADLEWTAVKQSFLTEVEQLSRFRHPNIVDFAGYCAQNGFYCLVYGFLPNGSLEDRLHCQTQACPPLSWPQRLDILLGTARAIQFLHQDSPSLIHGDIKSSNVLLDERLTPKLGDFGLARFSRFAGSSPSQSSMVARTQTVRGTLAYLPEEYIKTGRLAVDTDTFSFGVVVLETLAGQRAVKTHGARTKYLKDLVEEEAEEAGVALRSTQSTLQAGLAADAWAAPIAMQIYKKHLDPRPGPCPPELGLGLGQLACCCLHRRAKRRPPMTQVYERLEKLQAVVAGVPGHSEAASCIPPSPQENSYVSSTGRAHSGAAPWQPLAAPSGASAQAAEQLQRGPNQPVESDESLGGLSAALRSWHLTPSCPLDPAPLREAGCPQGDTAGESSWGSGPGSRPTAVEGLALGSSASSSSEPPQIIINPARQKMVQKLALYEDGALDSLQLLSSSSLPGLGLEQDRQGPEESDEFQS

[27] = biological target: TBC1 domain family member 15 (Homo sapiens) (UniProt Q8TC07); also: assay method not described here
[28] = biological target: Dolichyl-diphosphooligosaccharide--protein glycosyltransferase subunit DAD1 (Homo sapiens) (UniProt P61803); also: assay method not described here
[29] = biological target: Large ribosomal subunit protein eL30 (Homo sapiens) (UniProt P62888); also: assay method not described here
[30] = biological target: Glucose-6-phosphate 1-dehydrogenase (Homo sapiens) (UniProt P11413); also: assay method not described here
Homo sapiens [31] = species on record: Homo sapiens; remark: listed apart in the source; also: assay method not described here
[32] = biological target: Tyrosine-protein kinase ABL1 (Homo sapiens, UniProt P00519); details: read-out: Kd(app)
Tyrosine-protein kinase ABL1, sequence (P00519 whole entry): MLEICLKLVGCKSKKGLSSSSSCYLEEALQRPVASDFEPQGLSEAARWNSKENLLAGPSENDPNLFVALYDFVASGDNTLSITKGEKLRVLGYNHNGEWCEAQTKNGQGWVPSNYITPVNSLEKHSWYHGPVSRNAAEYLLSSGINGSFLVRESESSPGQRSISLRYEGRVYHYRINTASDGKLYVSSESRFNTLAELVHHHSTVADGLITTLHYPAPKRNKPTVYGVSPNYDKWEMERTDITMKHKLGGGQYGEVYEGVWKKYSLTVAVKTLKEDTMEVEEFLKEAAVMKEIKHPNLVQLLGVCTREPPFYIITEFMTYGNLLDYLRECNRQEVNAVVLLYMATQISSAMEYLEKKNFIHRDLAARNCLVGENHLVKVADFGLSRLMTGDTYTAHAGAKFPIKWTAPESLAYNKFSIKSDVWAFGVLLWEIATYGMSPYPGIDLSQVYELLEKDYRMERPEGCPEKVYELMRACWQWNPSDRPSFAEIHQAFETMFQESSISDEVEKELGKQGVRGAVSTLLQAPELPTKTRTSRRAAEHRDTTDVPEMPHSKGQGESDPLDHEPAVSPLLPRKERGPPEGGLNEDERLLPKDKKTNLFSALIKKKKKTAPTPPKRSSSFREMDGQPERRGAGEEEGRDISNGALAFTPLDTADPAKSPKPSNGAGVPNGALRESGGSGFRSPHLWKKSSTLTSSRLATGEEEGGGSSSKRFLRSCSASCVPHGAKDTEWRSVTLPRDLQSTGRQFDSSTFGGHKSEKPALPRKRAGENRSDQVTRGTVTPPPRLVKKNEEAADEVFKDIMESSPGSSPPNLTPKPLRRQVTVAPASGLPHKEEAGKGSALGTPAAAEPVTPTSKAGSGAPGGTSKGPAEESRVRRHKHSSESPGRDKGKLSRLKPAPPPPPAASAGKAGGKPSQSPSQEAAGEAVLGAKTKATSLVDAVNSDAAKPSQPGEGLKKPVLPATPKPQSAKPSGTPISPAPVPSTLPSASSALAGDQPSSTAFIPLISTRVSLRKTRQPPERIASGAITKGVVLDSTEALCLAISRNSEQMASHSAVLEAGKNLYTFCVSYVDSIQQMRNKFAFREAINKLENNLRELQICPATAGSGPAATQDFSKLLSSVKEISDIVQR

[33] = biological target: RNA-binding protein FXR1 (Homo sapiens) (UniProt P51114); also: assay method not described here
[34] = biological target: AP-3 complex subunit sigma-1 (Homo sapiens) (UniProt Q92572); also: assay method not described here
[35] = biological target: Serine/threonine-protein kinase ULK3 (Homo sapiens) (UniProt Q6PHR2); also: assay method not described here
[36] = biological target: Putative heat shock protein HSP 90-beta 2 (Homo sapiens) (UniProt Q58FF8); also: assay method not described here
Putative heat shock protein HSP 90-beta 2 (Homo sapiens), sequence (Q58FF8 whole entry): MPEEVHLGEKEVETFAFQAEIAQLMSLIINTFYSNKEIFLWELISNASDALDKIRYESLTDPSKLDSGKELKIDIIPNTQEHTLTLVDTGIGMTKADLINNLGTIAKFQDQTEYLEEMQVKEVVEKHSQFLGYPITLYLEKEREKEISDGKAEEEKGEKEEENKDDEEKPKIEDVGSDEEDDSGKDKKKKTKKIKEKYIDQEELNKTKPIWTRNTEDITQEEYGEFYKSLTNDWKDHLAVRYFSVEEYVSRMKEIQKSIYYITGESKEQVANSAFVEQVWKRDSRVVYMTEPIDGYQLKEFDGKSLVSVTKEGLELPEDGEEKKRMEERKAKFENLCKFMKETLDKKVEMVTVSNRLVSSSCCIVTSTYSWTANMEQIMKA

[37] = biological target: Solute carrier family 35 member E1 (Homo sapiens) (UniProt Q96K37); also: assay method not described here
[38] = biological target: Tubulin alpha-1B chain (Homo sapiens) (UniProt P68363); also: assay method not described here
[39] = biological target: Histone H1.10 (Homo sapiens) (UniProt Q92522); also: assay method not described here
[40] = biological target: Glutathione reductase, mitochondrial (Homo sapiens) (UniProt P00390); also: assay method not described here
[41] = biological target: Nuclear pore complex protein Nup160 (Homo sapiens) (UniProt Q12769); also: assay method not described here
[42] = biological target: Ran-specific GTPase-activating protein (Homo sapiens) (UniProt P43487); also: assay method not described here
[43] = biological target: Polyadenylate-binding protein-interacting protein 1 (Homo sapiens) (UniProt Q9H074); also: assay method not described here
[44] = biological target: WD repeat-containing protein 1 (Homo sapiens) (UniProt O75083); also: assay method not described here
[45] = biological target: ATP-dependent 6-phosphofructokinase, platelet type (Homo sapiens) (UniProt Q01813); also: assay method not described here
[46] = biological target: Nucleosome assembly protein 1-like 1 (Homo sapiens) (UniProt P55209); also: assay method not described here
For ED50 in this document: assay method not described here.

## Cc1ccc(C(=O)Nc2cccc(C(F)(F)F)c2)cc1Nc1nc(-c2cccnc2)nc2nn(C)cc12
[1]
  ED50: 29.3 nM
[2]
  ED50: 36500 nM
[3]
  ED50: 50 nM
[4]
  ED50: 34.4 nM
Homo sapiens [5]
  ED50: 545 nM
[6]
  ED50: 9.05 nM
[7]
  ED50: 94.5 nM
[8]
  ED50: 110000 nM
[9]
  ED50: 120 nM
[10]
  ED50: 17.3 nM
[11]
  ED50: 11.3 nM
[12]
  ED50: 117 nM
[13]
  ED50: 5.39 nM
[14]
  ED50: 7980 nM
Cyclin-T2 (Homo sapiens)
  ED50: 63.2 nM
[15]
  ED50: 9450 nM
[16]
  ED50: 4.48 nM
[17]
  ED50: 50.5 nM
[18]
  ED50: 508 nM
[19]
  ED50: 29.9 nM
[20]
  ED50: 3600 nM
[21]
  ED50: 52.3 nM
[22]
  ED50: 30.8 nM
[23]
  ED50: 7070 nM
[24]
  ED50: 356 nM
[25]
  ED50: 10.4 nM
[26]
  ED50: 47.9 nM
[27]
  ED50: 34900 nM
[28]
  ED50: 32900 nM
[29]
  ED50: 1580 nM
[30]
  ED50: 107 nM
Homo sapiens [31]
  ED50: 6810 nM
[32]
  Kd: 732 nM
[33]
  ED50: 1.97 nM
[34]
  ED50: 2470 nM
[35]
  ED50: 78.4 nM
[36]
  ED50: 573 nM
[37]
  ED50: 55300 nM
[38]
  ED50: 3870 nM
[39]
  ED50: 16.7 nM
[40]
  ED50: 24700 nM
[41]
  ED50: 160000 nM
[42]
  ED50: 8140 nM
[43]
  ED50: 5.52 nM
[44]
  ED50: 81.7 nM
[45]
  ED50: 5.71 nM
[46]
  ED50: 147000 nM

## Cc1ccc(C(=O)Nc2cccc(C(F)(F)F)c2)cc1Nc1nc(-c2cccnc2)nc2c1cnn2C
[1]
  ED50: 0.55 nM
[2]
  ED50: 3.73 nM
[3]
  ED50: 7940 nM
[4]
  ED50: 836 nM
Homo sapiens [5]
  ED50: 3420 nM
[6]
  ED50: 2460 nM
[7]
  ED50: 4060 nM
[8]
  ED50: 3310 nM
[9]
  ED50: 4010 nM
[10]
  ED50: 51.7 nM
[11]
  ED50: 5620 nM
[12]
  ED50: 50300 nM
[13]
  ED50: 53.3 nM
[14]
  ED50: 3760 nM
Cyclin-T2 (Homo sapiens)
  ED50: 12800 nM
[15]
  ED50: 13500 nM
[16]
  ED50: 2.65 nM
[17]
  ED50: 485 nM
[18]
  ED50: 6140 nM
[19]
  ED50: 1220 nM
[20]
  ED50: 68.3 nM
[21]
  ED50: 1410 nM
[22]
  ED50: 31.4 nM
[23]
  ED50: 596 nM
[24]
  ED50: 13400 nM
[25]
  ED50: 4.67 nM
[26]
  ED50: 14600 nM
[27]
  ED50: 829 nM
[28]
  ED50: 14000 nM
[29]
  ED50: 25.7 nM
[30]
  ED50: 81400 nM
Homo sapiens [31]
  ED50: 6330 nM
[32]
  Kd: 910 nM
[33]
  ED50: 9.57 nM
[34]
  ED50: 116000 nM
[35]
  ED50: 3540 nM
[36]
  ED50: 11.2 nM
[37]
  ED50: 4.39 nM
[38]
  ED50: 1730 nM
[39]
  ED50: 7240 nM
[40]
  ED50: 8810 nM
[41]
  ED50: 878 nM
[42]
  ED50: 3630 nM
[43]
  ED50: 13900 nM
[44]
  ED50: 2690 nM
[45]
  ED50: 9490 nM
[46]
  ED50: 3100 nM
